# Reference: patent US20250114313A1, “OLIGO-BENZAMIDE ANALOGS AND THEIR USE IN CANCER TREATMENT” (BOARD OF REGENTS, THE UNIVERSITY OF TEXAS SYSTEM, priority 2022, published 2025)
# Tests used:
# [1] = tested on: SUM-159 LIPA KO xenografts; assay: SUM-159 LIPA KO xenografts; assay type: in vivo, SCID mice; conditions: i.p., 10 mg/kg/day
# Description: Knockout studies: For xenograft knockout tumor models, 1.8×10^6SUM159 parental, or 1.8×10^6SUM159-LIPA KO cells were harvested with 1% trypsin-EDTA, washed and resuspended in sterile PBS. Cells were initially implanted into the mammary fat pads of six-week-old female C.B-17 (SCID) mice purchased from Envigo (Indianapolis, IN, USA). Mice were monitored twice weekly for tumor growth measured by Vernier calipers where tumor volume was calculated by the formula (length×width^2)/2. Tumors were dissected into 2 mm cubes when they reached 800 mm^3 in size and subsequently implanted into the mammary fat pad of twelve SCID female mice. Once tumor fragments reached 150 mm^3 in size, mice were randomly divided into vehicle group (n=6, control, 0.3% Hydroxy cellulose, i.p.) and treatment group (n=6, ERX-41, 10 mg/kg/day/i.p.). Institutional guidelines were followed to determine experimental end points.
# [2] = Evaluation of normal organs of treated mice (H&E, IHC, flow cytometry, ELISpot); assay type: in vivo
# Description: Immunohistochemistry: Immunohistochemical studies were performed as described previously.^7 For the immunohistochemical studies, tissue sections were blocked in background sniper (Biocare Medical, RS966L) followed by overnight incubation with primary antibodies anti-Ki-67 antibody (1:1000, GeneTex cat #GTX16667 RRID:AB_422351) (link), anti-CHOP antibody (1:2000, Sigma, Cat #HPA068416), anti-PERK (phospho T982) antibody (1:150, Abcam Cat #ab192591, RRID:AB_2728666) link)), anti-phospho-eIF2α (Ser51) (1:50, Cell signaling, cs3398) and subsequent secondary antibody incubation for 60 min at room temperature. Immunoreactivity was visualized by using the DAB substrate and counterstained with hematoxylin (Vector Lab, Inc.). Percent of Ki67 positive proliferating cells was calculated in five randomly selected high-power fields (×40).
# ELISpot. For ELISpot analysis of total IgM^+ and IgG^+ ASCs, Multi-Screen® filter plates (Millipore) were activated with 35% ethanol, washed with PBS, and coated with anti-IgM (SouthernBiotech, Cat. #1020-01) or anti-IgG (SouthernBiotech, Cat. #1030-01) in PBS. Single bone marrow cell suspensions were prepared, as above, and cultured at 250,000 cells/ml in RPMI 1640 medium (Invitrogen) supplemented with FBS (10% v/v, Invitrogen), penicillin-streptomycin/amphotericin B (1% v/v) and 50 μM β-mercaptoethanol (RPMI-FBS) at 37° C. for 16 h. After supernatants were removed, plates were incubated with biotinylated goat anti-mouse IgM (SouthernBiotech, Cat. #1020-08) or goat anti-mouse IgG1 (SouthernBiotech, Cat. #1070-08) Ab for 2 h and, after washing, incubated with HRP-conjugated streptavidin. Plates were developed using the Vectastain AEC peroxidase substrate kit (Vector Laboratories). The stained area in each well was quantified using the CTL ImmunoSpot software (Cellular Technology) and depicted as the number of spots for quantification
# Flow cytometry: Single cell suspensions were flushed from tibia and fibula using sterile DPBS using a 10 ml syringe and 30 G needle. Red blood cells were removed by incubation with ACK lysis buffer (Lonzo) for 2 m. Bone marrow cells (2×10^6) were first stained in Hank's Buffered Salt Solution plus 0.1% BSA (HBSS-BSA) for 20 m with fixable viability dye (FVD, eFluor™ 506, eBioscience™, Cat. #50-246-097) and fluorophore-labeled mAbs to surface markers, including CD3 (APC-Cy7, Clone 17A2, BioLegend, Cat. #100221), IgD (FITC, Clone 11-26c.2a, BioLegend, Cat. #405704), CD138 (PE-Cy7, Clone 281-2, BioLegend, Cat. #142514), SCA-1 (PerCP, Clone D7, BioLegend, Cat. #108121), B220 (BV421, Clone RA3-6B2, BioLegend, Cat. #103240), in the presence of mAb Clone 2.4G2, which blocks FcγII and FcγIII receptors. After washing, cells were then fixed and permeablized by incubation for 1 h in 250 μl BD Cytofix/Cytoperm™ buffer (BD Fixation/Permeablization Kit, Cat. #554714) at 4° C. After washing twice with the BD Perm/Wash™ buffer, cells were counted again and 10^6 cells were resuspended in 100 μl of BD Cytofix/Cytoperm™ buffer for intracellular staining with anti-Igκ mAb (PE, e-Bioscience™, Clone 1871, Cat. #MKAPPA04) for 30 m. After washing with BD Perm/Wash™ buffer, cells were analyzed by LSRII (BD). FACS data were analyzed by the FlowJo® software (BD).
# Animal Studies: All animal experiments were performed using UTHSA and UTSW IACUC approved protocols. For cell based xenograft tumor assays, TNBC cells (2×10^5-2×10^6) were mixed with an equal volume of matrigel and implanted in the mammary fat pads of 6-week-old female athymic nude mice as described^33. BALB/c mice were used for D2A1 syngeneic model. Once tumors reached measurable size, mice were divided into control (vehicle) and ERX-41 (10 mg/kg/oral) treatment groups. Mice bearing TNBC PDX tumors were purchased from Jackson laboratory (TM00089; TM00096; TM00098). TNBC PDX line UTPDX0001 establishment was earlier described^38. WHIM-20 ER+PDX model was purchased from Horizon Labs. OCa-PDX-38 was received from UTHSA ObGyn tissue procurement core. […]
# HMEC cells = assay: Western blotting (UPR proteins, puromycin labeled nascent proteins), HMEC; assay type: cell-based, human; conditions: 1 μM
structure (smiles),measurement,setting,value
CC(C)COc1cc(C(=O)Nc2ccc(C(=O)N[C@H]3CC[C@H](C)CC3)cc2OCC(C)C)ccc1NC(=O)c1ccc([N+](=O)[O-])c(OCCO)c1 [ERX-41],response of LIPA KO xenografts,[1],did not respond
same,"bone marrow plasma cell numbers, Ig κ expression, IgM or IgG ASCs","[2]; flow cytometry and ELISpot, 1 week oral 10 mg/kg/day",did not show any significant effects
same,"gross histology of organs, nude mice with MDA-MB-231 xenografts","[2]; heart, lung, spleen, liver, kidney, ovary, pancreas, 30 days oral 10 mg/kg/day",no significant changes in the gross histology of multiple organs
same,"histology of organs, syngeneic mice with D2A1 xenografts",[2]; multiple organs including spleen,no significant histologic changes or immune infiltrates
same,ER stress in normal liver or kidney tissues,"[2]; oral administration, data not shown",no significant induction of ER stress
same,"uterus: proliferation index (Ki67), endometrial cell height, ERα expression","[2]; oral, 10 mg/kg/day",did not affect the proliferation index
same,immunogenicity,[2]; syngeneic mice,not immunogenic
same,global de novo protein synthesis in HMEC,HMEC cells,not HMEC cells
same,induction of ER stress / UPR proteins in HMEC,HMEC cells,not in HMEC cells
